Data from patent US20110218143A1, “COMPOSITIONS AND METHODS FOR TISSUE REPAIR” (UNIVERSITY OF FLORIDA RESEARCH FOUNDATION, priority 2007, published 2011).
Entries after “also recorded” stand apart in the source; their conditions may differ.

What was measured:
[1] = test system: mice with STZ induced diabetes; experiment: Glucose challenge test in STZ mice; type: in vivo, C57BL6/J mice; details: 1 g glucose/kg, monitored up to 5 hours, placebo mice at or above 400 mg/dl between 0.5 and 2 hours
Description: STZ was administered to C57BL6/J mice as described above to induce diabetes. Groups of C57BL6/J mice that received either STZ and placebo or STZ and celastrol were then subjected to a glucose challenge test to assay glucose metabolism. STZ mice received 1 g glucose/kg. Blood glucose levels were monitored for up to 5 hours following administration of glucose. […] Blood glucose levels never reached these levels in STZ mice treated with celastrol. In fact, mice treated with celastrol were better able to metabolize glucose than STZ mice that received placebo (FIG. 10).

NOD-scid mice = experiment: Adaptive transfer of splenocytes into NOD-scid mice; type: in vivo; details: splenocytes from celastrol treated NOD mice, 5.3×10^6 cells per mouse via tail vein; at 68 day
Source text: NOD mice were sacrificed and splenocytes collected from celastrol-treated healthy mice and mice that became diabetic recently were adaptively transferred at 5.3×10^6 cells per mouse into NOD-scid mice (mice free from immune system) via tail vein injection. Blood glucose levels of the mice were monitored starting from 4 weeks after the adaptive transfer was made. All mice (n=4) that received splenocytes from diabetic mice became diabetic between 31-38 days (FIG. 17, Kaplan-Meier graph). In contrast, mice (12/12) that received splenocytes from celastrol treated mice were free of diabetes (hyperglycemic condition) at 68 day (FIG. 17).

[2] = test system: mice with ALF induced by TAA; experiment: Liver histology in thioacetamide (TAA) induced acute liver failure; type: in vivo, C57BL6/J mice; details: TAA 500 mg/kg; celastrol 2.5 mg/kg by injection; 3 days after ALF induction
Description: The administration of thiomacetamide (TAA) to induce liver damage is a well-known model of acute liver failure (ALF), see for example, Müller et al., “Thioacetamide-induced cirrhosis-like liver lesions in rats—usefulness and reliability of this animal model.” Exp Pathol. 1988; 34(4):229-36. Groups of C57BL6/J mice received either TAA (1000 mg/kg), TAA (500 mg/kg), or placebo by intraperitoneal injection. The group receiving TAA (500 mg/kg) was divided into two subgroups, and one group received NS by injection and the other group received celastrol by injection (2.5 mg/kg). Mice were sacrificed either one or three days after treatment. The livers of the mice were removed for histological examination (FIGS. 11A-11D).

[3] = test system: mice with STZ induced diabetes; experiment: Blood glucose in streptozotocin (STZ) induced diabetes model; type: in vivo, C57BL6/J mice; details: STZ 50 mg/kg i.p.; celastrol 2.5 mg/kg by injection from day -2, three times per week; monitored 30 days
Description: The administration of streptozotocin to induce pancreatic cell death is a well-known model of diabetes, see for example, Like and Rossini, “Streptozotocin-induced pancreatic insulitis: new model of diabetes mellitus.” Science. Jul. 30, 1976; 193(4251):415-7. Fasting C57BL6/J mice received 50 mg/kg streptozotocin (STZ) by intraperitoneal injection at day 0. Two days prior to (−2 day) and concurrently with STZ injection half of the mice also received celastrol by injection (2.5 mg/kg). Celastrol injections continued three times per week throughout the experiment. Blood glucose levels were monitored for 30 days after treatment (FIG. 9). […] In mice, normoglycemia is typically less than 200 mg/dL blood glucose.

[4] = test system: mice with ALF induced by TAA; experiment: Survival in TAA induced acute liver failure; type: in vivo, C57BL6/J mice; details: TAA 1000 mg/kg and celastrol 3 mg/kg i.p.; examined 3 days or longer; TAA alone 100% mortality
Description: Thiomacetamide (TAA) was administered to C57BL6/J mice to induce liver damage. Groups of at least 6 C57BL6/J mice received either TAA (1000 mg/kg) and a placebo, TAA (1000 mg/kg) and celastrol (3 mg/kg), or placebo only by intraperitoneal injection. Mice were examined for 3 days or longer to determine survival (FIG. 12).

## CC1=C(O)C(=O)C=C2C1=CC=C1[C@@]2(C)CC[C@@]2(C)[C@@H]3C[C@](C)(C(=O)O)CC[C@]3(C)CC[C@]12C [celastrol]
[1]
  blood glucose levels after glucose challenge: < 400 mg/dL
NOD-scid mice
  recipient mice free of diabetes (hyperglycemic condition): 12/12
[2]
  liver histology after ALF induction: regression of liver injury
[3]
  blood glucose levels in STZ mice relative to STZ mice injected with saline placebo: substantially lower; also recorded: normoglycemia
[4]
  survival: 71.4%
